# Source: ChEMBL document CHEMBL1201862, “PubChem BioAssay data set” (2004)
#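 Briefly, cells in 96-well plates were exposed to five compound concentrations for 48 h, and endpoints were estimated by linear interpolation. GI50 marks 50% less growth.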 Calls of active or inactive are those of the source. No stated cut-off is given here; in the data, active = GI50 up to about 1.1 µM and inactive = higher.
# Key:
# Assay in all cases: NCI anticancer screen, dose series, 48 h
# RPMI-8226 = test system: RPMI-8226
# LOX IMVI = test system: LOX IMVI
# SR = test system: SR
# CAKI-1 = test system: CAKI-1
# U-251 = test system: U-251
# MOLT-4 = test system: MOLT-4
# A549 = test system: A549
# SW-620 = test system: SW-620
# KM-20L2 = test system: KM-20L2
# SF-295 = test system: SF-295
# NCI-H226 = test system: NCI-H226
# HL-60 = test system: HL-60
# HCC 2998 = test system: HCC 2998
# NCI-H460 = test system: NCI-H460
# RXF 393 = test system: RXF 393
# OVCAR-8 = test system: OVCAR-8
# UACC-257 = test system: UACC-257
# HOP-92 = test system: HOP-92
# NCI-H522 = test system: NCI-H522
# SF-268 = test system: SF-268
# HCT-15 = test system: HCT-15
# HT-29 = test system: HT-29
# M14 = test system: M14
# SNB-19 = test system: SNB-19
# UO-31 = test system: UO-31
# DMS-114 = test system: DMS-114
# HCT-116 = test system: HCT-116
# IGROV-1 = test system: IGROV-1
# TK-10 = test system: TK-10
# OVCAR-5 = test system: OVCAR-5
# HOP-62 = test system: HOP-62
# K562 = test system: K562
# XF498 = test system: XF498
# DMS-273 = test system: DMS-273
# LXFL 529 = test system: LXFL 529
# DLD-1 = test system: DLD-1
# CCRF-CEM = test system: CCRF-CEM
# EKVX = test system: EKVX
# SK-MEL-2 = test system: SK-MEL-2
# SNB-75 = test system: SNB-75
# SF-539 = test system: SF-539
# A498 = test system: A498
# M19-MEL = test system: M19-MEL
# OVCAR-4 = test system: OVCAR-4
# SK-MEL-28 = test system: SK-MEL-28
# KM12 = test system: KM12
# SN12C = test system: SN12C
# COLO 205 = test system: COLO 205
# NCI-H23 = test system: NCI-H23
# ACHN = test system: ACHN
# SK-MEL-5 = test system: SK-MEL-5
# UACC-62 = test system: UACC-62
# SK-OV-3 = test system: SK-OV-3
# 786-0 = test system: 786-0
# Malme-3M = test system: Malme-3M
# OVCAR-3 = test system: OVCAR-3
# SNB-78 = test system: SNB-78
compound,measurement,setting,value
COC(=O)C(=O)C(C(C)=O)C(=O)C(=O)Nc1ccc(C)cc1C (centres undefined),GI50,RPMI-8226,> 100 µM (inactive)
same,GI50,LOX IMVI,> 100 µM (inactive)
same,GI50,SR,> 100 µM (inactive)
same,GI50,CAKI-1,> 100 µM (inactive)
same,GI50,U-251,> 100 µM (inactive)
same,GI50,MOLT-4,> 100 µM (inactive)
same,GI50,A549,> 100 µM (inactive)
same,GI50,SW-620,> 100 µM (inactive)
same,GI50,KM-20L2,> 100 µM (inactive)
same,GI50,SF-295,> 100 µM (inactive)
same,GI50,NCI-H226,> 100 µM (inactive)
same,GI50,HL-60,> 100 µM (inactive)
same,GI50,HCC 2998,> 100 µM (inactive)
same,GI50,NCI-H460,> 100 µM (inactive)
same,GI50,RXF 393,> 100 µM (inactive)
same,GI50,OVCAR-8,> 100 µM (inactive)
same,GI50,UACC-257,> 100 µM (inactive)
same,GI50,HOP-92,> 100 µM (inactive)
same,GI50,NCI-H522,> 100 µM (inactive)
same,GI50,SF-268,> 100 µM (inactive)
same,GI50,HCT-15,> 100 µM
same,GI50,HT-29,> 100 µM (inactive)
same,GI50,M14,> 100 µM (inactive)
same,GI50,SNB-19,> 100 µM (inactive)
same,GI50,UO-31,> 100 µM (inactive)
same,GI50,DMS-114,> 100 µM (inactive)
same,GI50,HCT-116,> 100 µM (inactive)
same,GI50,IGROV-1,> 100 µM (inactive)
same,GI50,TK-10,> 100 µM (inactive)
same,GI50,OVCAR-5,> 100 µM (inactive)
same,GI50,HOP-62,> 100 µM (inactive)
same,GI50,K562,> 100 µM (inactive)
same,GI50,XF498,> 100 µM (inactive)
same,GI50,DMS-273,> 100 µM (inactive)
same,GI50,LXFL 529,> 100 µM (inactive)
same,GI50,DLD-1,> 100 µM (inactive)
same,GI50,CCRF-CEM,> 100 µM (inactive)
same,GI50,EKVX,> 100 µM (inactive)
same,GI50,SK-MEL-2,> 100 µM (inactive)
same,GI50,SNB-75,> 100 µM (inactive)
same,GI50,SF-539,> 100 µM (inactive)
same,GI50,A498,> 100 µM (inactive)
same,GI50,M19-MEL,> 100 µM (inactive)
same,GI50,OVCAR-4,> 100 µM (inactive)
same,GI50,SK-MEL-28,> 100 µM (inactive)
same,GI50,KM12,> 100 µM (inactive)
same,GI50,SN12C,> 100 µM (inactive)
same,GI50,COLO 205,> 100 µM (inactive)
same,GI50,NCI-H23,> 100 µM (inactive)
same,GI50,ACHN,> 100 µM (inactive)
same,GI50,SK-MEL-5,> 100 µM (inactive)
same,GI50,UACC-62,> 100 µM (inactive)
same,GI50,SK-OV-3,> 100 µM (inactive)
O=C(CC1(O)C(=O)Nc2ccccc21)c1ccc(F)cc1 (centres undefined),GI50,RPMI-8226,> 100 µM (inactive)
same,GI50,LOX IMVI,> 100 µM (inactive)
same,GI50,CAKI-1,> 100 µM (inactive)
same,GI50,MOLT-4,> 100 µM (inactive)
same,GI50,786-0,> 100 µM (inactive)
same,GI50,A549,> 100 µM (inactive)
same,GI50,SW-620,> 100 µM (inactive)
same,GI50,KM-20L2,> 100 µM (inactive)
same,GI50,SF-295,> 100 µM (inactive)
same,GI50,NCI-H226,> 100 µM (inactive)
same,GI50,HL-60,> 100 µM (inactive)
same,GI50,NCI-H460,> 100 µM (inactive)
same,GI50,RXF 393,> 100 µM (inactive)
same,GI50,OVCAR-8,> 100 µM (inactive)
same,GI50,UACC-257,> 100 µM (inactive)
same,GI50,HOP-92,> 100 µM (inactive)
same,GI50,NCI-H522,> 100 µM (inactive)
same,GI50,SF-268,> 100 µM (inactive)
same,GI50,HCT-15,> 100 µM
same,GI50,HT-29,> 100 µM (inactive)
same,GI50,M14,> 100 µM (inactive)
same,GI50,SNB-19,> 100 µM (inactive)
same,GI50,Malme-3M,> 100 µM (inactive)
same,GI50,UO-31,> 100 µM (inactive)
same,GI50,DMS-114,> 100 µM (inactive)
same,GI50,HCT-116,> 100 µM (inactive)
same,GI50,IGROV-1,> 100 µM (inactive)
same,GI50,TK-10,> 100 µM (inactive)
same,GI50,OVCAR-5,> 100 µM (inactive)
same,GI50,K562,> 100 µM (inactive)
same,GI50,OVCAR-3,> 100 µM (inactive)
same,GI50,XF498,> 100 µM (inactive)
same,GI50,DMS-273,> 100 µM (inactive)
same,GI50,LXFL 529,> 100 µM (inactive)
same,GI50,DLD-1,> 100 µM (inactive)
same,GI50,EKVX,> 100 µM (inactive)
same,GI50,SK-MEL-2,> 100 µM (inactive)
same,GI50,SNB-78,> 100 µM (inactive)
same,GI50,SNB-75,> 100 µM (inactive)
same,GI50,SF-539,> 100 µM (inactive)
same,GI50,A498,> 100 µM (inactive)
same,GI50,M19-MEL,> 100 µM (inactive)
same,GI50,OVCAR-4,> 100 µM (inactive)
same,GI50,SK-MEL-28,> 100 µM (inactive)
same,GI50,SN12C,> 100 µM (inactive)
same,GI50,COLO 205,> 100 µM (inactive)
same,GI50,NCI-H23,> 100 µM (inactive)
same,GI50,ACHN,> 100 µM (inactive)
same,GI50,SK-MEL-5,> 100 µM (inactive)
same,GI50,UACC-62,> 100 µM (inactive)
same,GI50,SK-OV-3,> 100 µM (inactive)
